Patent publication US8546414B2, “Ion channel modulators and methods of use” (Vertex Pharmaceuticals Incorporated, priority 2004, dated 2013)

Experiments:
CaV2.2 = biological target: T1, CaV2.2 (Homo sapiens, UniProt Q00975); experiment: VIPR optical membrane potential assay with electrical stimulation, CaV2.2; type: cell-based; conditions: Table 9, CaV 2.2 receptors
T1 construct: expressed in transfected cells; host or cells: HEK293
Method: A. Optical Methods for Assaying CaV Inhibition Properties of Compounds:
(§1) Antagonist properties of test compounds were assessed as follows. Cells expressing the CaV of interest were placed into microtiter plates. After an incubation period, the cells were stained with fluorescent dyes sensitive to the transmembrane potential. The test compounds were added to the microtiter plate. The cells were stimulated with electrical means to evoke a CaV dependent membrane potential change from unblocked channels, which was detected and measured with trans-membrane potential-sensitive dyes. Antagonists were detected as a decreased membrane potential response to the stimulus.
(§2) VIPR® Optical Membrane Potential Assay Method with Electrical Stimulation
The following is an example of how CaV2.2 inhibition activity is measured using the optical membrane potential method. Other subtypes are performed in an analogous mode in a cell line expressing the CaV of interest.
HEK293 cells stably expressing CaV2.2 are plated into 96-well microtiter plates. After an appropriate incubation period, the cells are stained with the voltage sensitive dyes CC2-DMPE/DiSBAC2(3) as follows.
(§3) 2X CC2-DMPE=20 μM CC2-DMPE: 10 mM CC2-DMPE is vortexed with an equivalent volume of 10% Pluronic, followed by vortexing in required amount of HBSS containing 10 mM HEPES. Each cell plate will require 5 mL of 2×CC2-DMPE. 50 μL of 2×CC2-DMPE is added to wells containing washed cells, resulting in a 10 μM final staining concentration. The cells are stained for 30 minutes in the dark at RT.
Vortex in required amount of Bath X with beta-cyclodextrin. Each 96 well cell plate will require 5 ml of 2XCC2DMPE. Wash plate with ELx405 with Bath X, leaving a residual volume of 50 μL/well. Add 50 μL of 2XCC2DMPE & […] to each well. Stain for 30 minutes in the dark at RT.
Allow solution to sit for 10 minutes. Slowly mix in 370 mM BaCl2. This solution can be used to solvate compound plates. Note that compound plates are made at 1.5× drug concentration and not the usual 2X. Wash CC2 stained plate, again, leaving residual volume of 50 μL. Add 100 uL/well of the AY17 solution. Stain for 15 minutes in the dark at RT. Run plate on the optical reader.
(§4) The instrument comprises a microtiter plate handler, an optical system for exciting the coumarin dye while simultaneously recording the coumarin and oxonol emissions, a waveform generator, a current- or voltage-controlled amplifier, and a device for inserting electrodes in well. Under integrated computer control, this instrument passes user-programmed electrical stimulus protocols to cells within the wells of the microtiter plate.
Insert or use electrodes into each well to be assayed.
(§5) Use the current-controlled amplifier to deliver stimulation wave pulses for 3-5 s. Two seconds of pre-stimulus recording are performed to obtain the un-stimulated intensities. Five seconds of post-stimulation recording are performed to examine the relaxation to the resting state.
(§6) Data are analyzed and reported as normalized ratios of background-subtracted emission intensities measured in the 460 nm and 580 nm channels. Background intensities are then subtracted from each assay channel. Background intensities are obtained by measuring the emission intensities during the same time periods from identically treated assay wells in which there are no cells. The response as a function of time is then reported as the ratios obtained using the following formula: […]
(§7) The data is further reduced by calculating the initial (Ri) and final (Rf) ratios. These are the average ratio values during part or all of the pre-stimulation period, and during sample points during the stimulation period. The response to the stimulus R=Rf/Ri is then calculated.
Control responses are obtained by performing assays in the presence of a compound with the desired properties (positive control), such as mibefradil, and in the absence of pharmacological agents (negative control).

NaV1.3 = biological target: T2, NaV1.3 (Homo sapiens, UniProt Q9NY46); experiment: VIPR optical membrane potential assay with electrical stimulation, NaV1.3; type: cell-based; conditions: Table 9, NaV 1.3 receptors
T2 construct: expressed in transfected cells; host or cells: HEK293
Method: as §1, with “expressing the NaV of interest” for “expressing the CaV of interest”, “stimulated with either chemical or electrical means” for “stimulated with electrical means”, “evoke a NaV dependent membrane” for “evoke a CaV dependent membrane”
as §2
The following is an example of how NaV1.3 inhibition activity is measured using the optical membrane potential method#2. Other subtypes are performed in an analogous mode in a cell line expressing the NaV of interest.
HEK293 cells stably expressing NaV1.3 are plated into 96-well microtiter plates. After an appropriate incubation period, the cells are stained with the voltage sensitive dyes CC2-DMPE/DiSBAC2(3) as follows.
as §3, with “pluronic,” for “Pluronic,”
2X DISBAC2(3) with ABSC1=6 μM DISBAC2(3) and 1 mM ABSC1: The required amount of 10 mM DISBAC2(3) is added to a 50 ml conical tube and mixed with 1 μL 10% pluronic for each mL of solution to be made and vortexed together. Then HBSS/HEPES is added to make up 2× solution. Finally, the ABSC1 is added.
The 2X DiSBAC2(3) solution can be used to solvate compound plates. Note that compound plates are made at 2× drug concentration. Wash stained plate again, leaving residual volume of 50 Add 50 μL/well of the 2X DiSBAC2(3) w/ABSC1. Stain for 30 minutes in the dark at RT.
as §4
as §5, with “• 1. Insert or use electrodes into each well to be assayed. • 2. Use” for “Use”, “3” for “3-5”, “state. Data Analysis” for “state.”
as §6, §7
Control responses are obtained by performing assays in the presence of a compound with the desired properties (positive control), such as tetracaine, and in the absence of pharmacological agents (negative control). Responses to the negative (N) and positive (P) controls are calculated as above. The compound antagonist activity A is defined as: […]

T2 sequence (Q9NY46 whole entry): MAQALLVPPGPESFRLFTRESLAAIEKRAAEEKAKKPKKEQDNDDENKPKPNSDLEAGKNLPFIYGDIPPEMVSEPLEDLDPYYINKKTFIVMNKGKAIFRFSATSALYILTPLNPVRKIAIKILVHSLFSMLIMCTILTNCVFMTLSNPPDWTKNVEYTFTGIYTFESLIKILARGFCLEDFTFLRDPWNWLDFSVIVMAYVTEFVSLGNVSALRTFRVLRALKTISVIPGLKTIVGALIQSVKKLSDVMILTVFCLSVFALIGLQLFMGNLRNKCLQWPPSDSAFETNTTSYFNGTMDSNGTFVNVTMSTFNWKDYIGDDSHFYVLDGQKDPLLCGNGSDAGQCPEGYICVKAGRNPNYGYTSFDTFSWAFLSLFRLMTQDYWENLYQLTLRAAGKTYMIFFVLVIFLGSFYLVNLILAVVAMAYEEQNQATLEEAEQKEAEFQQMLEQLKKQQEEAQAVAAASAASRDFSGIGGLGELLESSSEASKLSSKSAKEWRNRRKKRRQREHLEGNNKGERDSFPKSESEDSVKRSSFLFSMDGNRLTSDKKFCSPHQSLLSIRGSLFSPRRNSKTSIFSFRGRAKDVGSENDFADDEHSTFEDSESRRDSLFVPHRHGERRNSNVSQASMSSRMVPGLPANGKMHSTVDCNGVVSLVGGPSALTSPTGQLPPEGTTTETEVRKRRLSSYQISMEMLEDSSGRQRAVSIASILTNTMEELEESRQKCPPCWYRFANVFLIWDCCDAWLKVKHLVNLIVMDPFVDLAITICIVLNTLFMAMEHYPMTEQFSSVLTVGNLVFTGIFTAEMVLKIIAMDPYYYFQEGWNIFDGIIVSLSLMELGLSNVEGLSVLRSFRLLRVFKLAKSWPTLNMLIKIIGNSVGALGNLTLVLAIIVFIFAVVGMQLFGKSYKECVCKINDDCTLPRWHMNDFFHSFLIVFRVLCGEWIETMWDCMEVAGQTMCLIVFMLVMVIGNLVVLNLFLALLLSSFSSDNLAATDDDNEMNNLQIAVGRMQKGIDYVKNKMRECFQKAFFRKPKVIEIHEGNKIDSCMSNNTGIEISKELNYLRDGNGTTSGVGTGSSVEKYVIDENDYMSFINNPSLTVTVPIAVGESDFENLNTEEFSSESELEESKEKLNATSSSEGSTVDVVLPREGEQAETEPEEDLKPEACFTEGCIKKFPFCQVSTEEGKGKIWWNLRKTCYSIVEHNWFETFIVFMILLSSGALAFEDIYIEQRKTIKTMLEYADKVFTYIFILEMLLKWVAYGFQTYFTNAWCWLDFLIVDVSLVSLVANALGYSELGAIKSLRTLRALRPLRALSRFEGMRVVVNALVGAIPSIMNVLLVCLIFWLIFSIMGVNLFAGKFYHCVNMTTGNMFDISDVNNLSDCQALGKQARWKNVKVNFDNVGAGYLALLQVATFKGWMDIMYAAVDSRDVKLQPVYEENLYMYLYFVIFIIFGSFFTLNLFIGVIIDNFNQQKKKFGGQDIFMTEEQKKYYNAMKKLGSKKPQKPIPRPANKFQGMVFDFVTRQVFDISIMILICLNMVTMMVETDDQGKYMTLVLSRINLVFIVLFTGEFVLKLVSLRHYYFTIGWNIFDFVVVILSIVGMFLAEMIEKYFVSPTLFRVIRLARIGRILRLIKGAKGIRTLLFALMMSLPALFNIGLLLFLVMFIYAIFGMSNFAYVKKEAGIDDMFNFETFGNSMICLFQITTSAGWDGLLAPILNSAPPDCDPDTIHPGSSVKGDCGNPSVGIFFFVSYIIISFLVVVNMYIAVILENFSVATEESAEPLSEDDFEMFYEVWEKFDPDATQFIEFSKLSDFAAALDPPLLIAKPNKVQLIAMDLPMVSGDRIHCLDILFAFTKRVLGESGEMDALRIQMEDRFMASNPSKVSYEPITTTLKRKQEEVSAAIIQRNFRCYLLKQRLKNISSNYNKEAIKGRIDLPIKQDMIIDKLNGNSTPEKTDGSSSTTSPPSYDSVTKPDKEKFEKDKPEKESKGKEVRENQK

SMILES | IC50 (CaV2.2) | IC50 (NaV1.3)
Cc1cccc(-c2nc(NC3CC4CC(C3C)C4(C)C)ncc2C(=O)N2CCOCC2)c1 (stereo not drawn) [compound 288] | > 10 µM | > 10 µM
COCCNc1ncc(C(=O)NCC2CCCCC2)c(-c2ccc(-c3ccccc3)cc2)n1 [compound 297] | > 10 µM | > 10 µM
CCC(C)NC(=O)c1cnc(NCCc2ccc(Cl)cc2)nc1-c1ccccc1F (stereo not drawn) [compound 305] | > 10 µM | > 10 µM
Cc1cccc(-c2nc(NCC3CCCCC3)ncc2C(=O)N2CCOCC2)c1 [compound 306] | > 10 µM | > 10 µM
COCCCNC(=O)c1cnc(N2CCOCC2)nc1-c1cccc(C)c1 [compound 307] | > 10 µM | > 10 µM
CCN(Cc1cccc(C)c1)C(=O)c1cnc(NCCNC(C)=O)nc1-c1ccccc1F [compound 308] | > 10 µM | > 10 µM
CCC(C)NC(=O)c1cnc(NC2CCCCC2)nc1-c1ccc(C#N)cc1 (stereo not drawn) [compound 309] | > 10 µM | > 10 µM
COCCCNC(=O)c1cnc(NC2CCCCC2)nc1-c1ccc(-c2ccccc2)cc1 [compound 310] | > 10 µM | > 10 µM
CCN(Cc1ccccc1)C(=O)c1cnc(N2CCOCC2)nc1-c1ccc(C#N)cc1 [compound 313] | > 10 µM | > 10 µM
CCN(C)c1ncc(C(=O)NCCOC)c(-c2ccc(C#N)cc2)n1 [compound 314] | > 10 µM | > 10 µM
COc1ccc(CCNc2ncc(C(=O)N3CCC(C)CC3)c(-c3ccc(C#N)cc3)n2)cc1 [compound 316] | > 10 µM | > 10 µM
CCN(C)C(=O)c1cnc(N2CCOCC2)nc1-c1ccccc1F [compound 317] | > 10 µM | > 10 µM
CC(=O)NCCNc1ncc(C(=O)N(Cc2ccccc2)C(C)C)c(-c2ccc(C#N)cc2)n1 [compound 319] | > 10 µM | > 10 µM
CCCCNc1ncc(C(=O)N2CC(C)CC(C)C2)c(-c2ccc(C#N)cc2)n1 (stereo not drawn) [compound 320] | > 10 µM | > 10 µM
COCCNc1ncc(C(=O)N2CCOCC2)c(-c2cccc(C)c2)n1 [compound 321] | > 10 µM | > 10 µM
CC(C)CN(C)C(=O)c1cnc(N2CCCCC2)nc1-c1ccc(C#N)cc1 [compound 322] | > 10 µM | > 10 µM
O=C(c1cnc(N2CCOCC2)nc1-c1ccccc1F)N1CCCCC1 [compound 323] | > 10 µM | > 10 µM
COCCCNC(=O)c1cnc(N2CCOCC2)nc1-c1ccccc1F [compound 324] | > 10 µM | > 10 µM
COCCNc1ncc(C(=O)N2CC(C)CC(C)C2)c(-c2cccc(C)c2)n1 (stereo not drawn) [compound 325] | > 10 µM | > 10 µM

Second part, the molecule after the results:

IC50 (CaV2.2) | IC50 (NaV1.3) | SMILES
2 to 10 µM | > 10 µM | CCC1CCC(C)N(C(=O)c2cnc(N(C)CC)nc2-c2ccccc2F)C1 (stereo not drawn) [compound 282]
> 10 µM | > 10 µM | CCN(C)C(=O)c1cnc(N2CCCC(C(N)=O)C2)nc1-c1ccc(C#N)cc1 (stereo not drawn) [compound 284]
> 10 µM | > 10 µM | COc1ccc(CCN(C)c2ncc(C(=O)N3CC(C)CC(C)C3)c(-c3ccc(C#N)cc3)n2)cc1OC (stereo not drawn) [compound 285]
> 10 µM | > 10 µM | CC1CCCCC1NC(=O)c1cnc(N2CCCC(C(N)=O)C2)nc1-c1ccc(C#N)cc1 (stereo not drawn) [compound 286]
> 10 µM | > 10 µM | CCN(Cc1ccccc1)C(=O)c1cnc(N2CCCC(C(N)=O)C2)nc1-c1ccccc1F (stereo not drawn) [compound 289]
> 10 µM | > 10 µM | CCN(Cc1ccccc1)C(=O)c1cnc(N2CCN(C(C)=O)CC2)nc1-c1ccccc1F [compound 290]
> 10 µM | > 10 µM | CC(=O)NCCNc1ncc(C(=O)N(Cc2ccccc2)C(C)C)c(-c2ccccc2F)n1 [compound 291]
> 10 µM | > 10 µM | COc1ccc(CCN(C)c2ncc(C(=O)N3CCCC3)c(-c3ccc(C#N)cc3)n2)cc1OC [compound 292]
> 10 µM | > 10 µM | Cc1cccc(-c2nc(N3CCOCC3)ncc2C(=O)NCc2cccc(C(F)(F)F)c2)c1 [compound 293]
> 10 µM | > 10 µM | CCC1CCC(C)N(C(=O)c2cnc(NCCCOC)nc2-c2ccc(C#N)cc2)C1 (stereo not drawn) [compound 294]
2 to 10 µM | > 10 µM | CC(C)CN(C)C(=O)c1cnc(NCCc2cccc(F)c2)nc1-c1ccc(C#N)cc1 [compound 295]
> 10 µM | > 10 µM | COCCCNc1ncc(C(=O)N(Cc2ccccc2)C(C)C)c(-c2ccccc2F)n1 [compound 296]
> 10 µM | > 10 µM | CN(C(=O)c1cnc(NCC2CC2)nc1-c1ccc(C#N)cc1)C1CCCCC1 [compound 298]
> 10 µM | > 10 µM | CCCCNC(=O)c1cnc(N(C)CCc2ccc(OC)c(OC)c2)nc1-c1ccc(C#N)cc1 [compound 299]
> 10 µM | > 10 µM | COCCNc1ncc(C(=O)N(Cc2ccccc2)C(C)C)c(-c2ccccc2F)n1 [compound 300]
> 10 µM | > 10 µM | CC(C)N(Cc1ccccc1)C(=O)c1cnc(NCc2ccc3c(c2)OCO3)nc1-c1ccccc1F [compound 301]
> 10 µM | > 10 µM | COc1ccccc1CCNC(=O)c1cnc(N2CCOCC2)nc1-c1ccccc1F [compound 302]
> 10 µM | > 10 µM | COCCCNc1ncc(C(=O)N(C)C2CCCCC2)c(-c2ccc(C#N)cc2)n1 [compound 303]
> 10 µM | > 10 µM | Cc1cccc(-c2nc(NCc3ccccc3)ncc2C(=O)N2CCOCC2)c1 [compound 304]
2 to 10 µM | > 10 µM | CC(C)N(Cc1ccccc1)C(=O)c1cnc(N2CCOCC2)nc1-c1ccccc1F [compound 326, 4-(2-Fluoro-phenyl)-2-morpholin-4-yl-pyrimidine-5-carboxylic acid benzyl-isopropyl-amide]
